Reference: PMC3060605 (Nature Communications, 2010)
pKi: −log10 of the molar value.

Target: N1 (A/HongKong/156/97 (H5N1)) sialidase (Influenza A virus, UniProt Q9W7Y7)
Assay: biochemical

Sequence of N1 (A/HongKong/156/97 (H5N1)) sialidase (Q9W7Y7 whole entry, looked up): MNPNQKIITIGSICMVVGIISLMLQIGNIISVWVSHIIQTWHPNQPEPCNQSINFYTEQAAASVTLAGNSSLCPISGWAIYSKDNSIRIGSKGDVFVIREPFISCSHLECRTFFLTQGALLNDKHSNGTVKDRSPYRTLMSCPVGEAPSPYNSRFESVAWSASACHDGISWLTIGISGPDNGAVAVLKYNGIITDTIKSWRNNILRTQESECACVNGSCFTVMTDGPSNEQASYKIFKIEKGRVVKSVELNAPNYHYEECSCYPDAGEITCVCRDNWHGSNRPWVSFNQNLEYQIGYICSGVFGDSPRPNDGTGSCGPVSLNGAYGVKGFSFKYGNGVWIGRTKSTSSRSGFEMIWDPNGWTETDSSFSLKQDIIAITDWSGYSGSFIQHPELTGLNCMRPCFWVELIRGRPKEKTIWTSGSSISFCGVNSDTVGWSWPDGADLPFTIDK

CC(=O)N[C@H]1[C@H]([C@H](O)[C@H](O)CO)OC(C(=O)O)=C[C@@H]1N=C(N)N [Compound 1, zanamivir]
pKi: 9.77
